{"source": "patent US20070098469A1", "about": "“Fixing apparatus for nonheat fixing system, and image forming apparatus having fixing apparatus” (priority 2005, published 2007)", "origin": "cited, not measured here"}
{"conditions": "in vivo", "units": {"LD50": "g/kg"}}
{"compound": "CCCCOC(=O)CCCCCCCCC(=O)OCCCC", "note": "[Di-n-butyle sebacate]", "LD50": 14.9}
{"compound": "CCOCCOC(=O)CCC(=O)OCCOCC", "note": "[Diethoxyethyl succinate]", "LD50": 5}
{"compound": "CC(C)COC(=O)CCCCC(=O)OCC(C)C", "note": "[Diisobutyl adipate]", "LD50": 12.3}
{"compound": "CCO", "note": "[Ethanol]", "LD50": 20}
